Laboratory results as given in patent US8507545B2, “Cytotoxic T cell activator comprising EP4 agonist” (National University Corporation, Hamamatsu University …, priority 2007, dated 2013).

How the values were obtained:
TRP-2-specific CTLs [1] = assay: Activation of cytotoxic T cells in cervical lymph nodes after tape stripping (TRP-2 tetramer flow cytometry); format: in vivo, C57BL/6(B6) mice; conditions: relative to total mononucleocytes as 100
Protocol: (§1) The corneal layers of the auricles of C57BL/6(B6) mice were destroyed by repeating a stripping procedure using an adhesive tape in 10 cycles, and an antigen peptide or EP4 agonist was applied as a test substance. The antigen peptide used was a melanoma-specific antigen peptide (Accord K.K. Peptide Business Department; hereinafter abbreviated TRP-2) in solution in 70% ethanol; 10 μg was applied to one side of each auricle. The EP4 agonist used was 11α,15α,-dihydroxy-9-oxo-16-(3-methoxymethylphenyl)-17,18,19,20-tetranol-3,7-dithiaprost-13E-enoic acid (hereinafter abbreviated Compound A-(1)) in solution in a mixed solvent of acetone:olive oil=10:1; 20 μL of 100 μM solution was applied to one side of each auricle. One week after application of the test substance, the cervical lymph nodes were removed. The frequency of TRP-2-specific CTLs was determined relative to the total number of mononucleocytes in the cervical lymph nodes as 100 by a flowcytometric analysis (FACScaliber; Becton, Dickinson and Company.) with a tetramer (Medical & Biological Laboratories Co., Ltd.). Four experimental groups were established: (1) a group undergoing tape stripping (hereinafter abbreviated TS) alone, (2) a group undergoing TS followed by application of TRP-2, (3) a group undergoing TS followed by application of Compound A-(1), and (4) a group undergoing TS followed by application of TRP-2 and Compound A-(1).
Note that the melanoma-specific antigen peptide TRP-2 was synthesized on the basis of a partial sequence described in the aforementioned Non-patent Document 1 (SEQ ID NO. 1) (Accord K.K. Peptide Business Department).
The same procedures as Example 1(1) were followed except that the EP4 agonists used were 4-[(2-{(2R)-2-[(1E,3S)-4-(4-fluorophenyl)-3-hydroxybut-1-enyl]-5-oxopyrrolidin-1-yl}ethyl)sulfanyl]butanoic acid (hereinafter abbreviated Compound L-(1)) and 4-{[2-((1R,2R,3R)-3-hydroxy-2-{(1E,3S)-3-hydroxy-4-[3-(methoxymethyl)phenyl]but-1-enyl}-5-oxocyclopentyl)ethyl]sulfanyl}butanoic acid (hereinafter abbreviated Compound M-(1)); the action of each compound to activate cytotoxic T cells was evaluated. Four experimental groups were established: (1) a group undergoing TS alone, (2) a group undergoing TS followed by application of TRP-2, (3) a group undergoing TS followed by application of TRP-2 and Compound L-(1), and (4) a group undergoing TS followed by application of TRP-2 and Compound M-(1).

HSVgpB-specific CTLs = assay: Activation of cytotoxic T cells in cervical lymph nodes after tape stripping (HSVgpB pentamer flow cytometry); format: in vivo, C57BL/6(B6) mice; conditions: Example 1(3)
Protocol: as §1
The same procedures as Example 1(1) were followed except that the antigen peptide used was the herpes simplex virus-specific antigen HSV glycoprotein B (hereinafter abbreviated HSVgpB), and that a flowcytometric analysis with a pentamer (ProImmune Company) was performed, and the action of each compound to activate cytotoxic T cells was evaluated. Five experimental groups were established: (1) a group undergoing TS alone, (2) a group undergoing TS followed by application of HSVgpB, (3) a group undergoing TS followed by application of HSVgpB and Compound A-(1), (4) a group undergoing TS followed by application of HSVgpB and Compound L-(1), and (5) a group undergoing TS followed by application of HSVgpB and Compound M-(1).
Note that the herpes simplex virus-specific antigen peptide HSVgpB was synthesized on the basis of the partial sequence shown by SEQ ID NO. 2 (Virology, Vol. 195, pp. 62-70, (1993)) (ProImmune Company).

TRP-2-specific CTLs [2] = assay: Activation of cytotoxic T cells in isolated Langerhans cells co-cultured with lymphocytes; format: cell-based, C57BL/6(B6) mouse
Protocol: A given area of an auricle epidermal sheet was removed from the corneal layer of one auricle of each C57BL/6(B6) mouse, and trypsinized to yield an epidermal cell suspension. The epidermal cell suspension obtained was subjected to panning using an antibody specific for I-A^b antigen to isolate epidermal Langerhans cells. After each test substance (TRP-2 (concentration; 10 μg/mL) and Compound A-(1) (1 μM)) was added to the Langerhans cells isolated (cell density; 10^5 cells per mL), the cells were cultured with a medium (cRPMI1640 medium; Sigma-Aldrich Japan). Half a day later, the cells were co-cultured with splenocytic lymphocytes isolated from […] for 7 days. Subsequently, by a flowcytometric analysis (FACScaliber; Becton, Dickinson and Company.) using a tetramer (Medical & Biological Laboratories Co., Ltd.), the frequency of TRP-2-specific CTLs was determined relative to the total number of mononucleocytes in the medium as 100. Three experimental groups were established: (1) a group with no treatment, (2) a group with the addition of TRP-2, and (3) a group with the addition of both TRP-2 and Compound A-(1).

B16 melanoma cells = assay: Melanoma growth suppressing action; format: in vivo, B6 mouse; conditions: TS followed by application of TRP-2, experimental group (2)
Protocol: The corneal layer was removed from the right auricle of each B6 mouse by TS in the same manner as Example 1, and test substances (TRP-2 and Compound A-(1)) were applied there; 2 weeks later, the left auricle was treated in the same manner. The test substances applied to both ears were used in the same combination; TRP-2 was applied at 10 μg for one side of each auricle, and Compound A-(1) was applied at 20 μl, of 100 μM solution for one side of each auricle. Four days after the above-described treatment, each mouse received 2×10^5 B16 melanoma cells (RIKEN's Cell Bank) by subcutaneous transplantation, and examined for tumor growth. Experimental groups were established as in Example 1(1) (5 animals in each group).
Tumor diameter (mm), as an index of tumor growth, was measured in each group at various days after inoculation of B16 melanoma cells; the results are shown in FIG. 1.

[3] = Example 1(2), TS followed by application of TRP-2 and the EP4 agonist, cervical lymph nodes
[4] = TS followed by application of HSVgpB and the EP4 agonist

`COCc1cccc(C[C@H](O)/C=C/[C@H]2[C@H](O)CC(=O)[C@@H]2CCSCCCC(=O)O)c1` [Compound M-(1), 4-{[2-((1R,2R,3R)-3-hydroxy-2-{(1E,3S)-3-hydroxy-4-[3-(methoxymethyl)phenyl]but-1-enyl}-5-oxocyclopentyl)ethyl]sulfanyl}butanoic acid] was tested, and the “Ratio of TRP-2-specific CTLs” value (TRP-2-specific CTLs [1]; [3]) was 1.66 and the “Ratio of HSVgpB-specific CTLs” value (HSVgpB-specific CTLs; [4]) was 0.30.

“HSVgpB: herpes simplex virus-specific antigen peptide; Herpes Simplex Virus glycoprotein B 498-505 (SEQ ID NO. 2) (SSIEFARL; Herpes Simplex Virus glycoprotein B 498-505) [reference compound]” was tested, and the “Ratio of HSVgpB-specific CTLs” value (HSVgpB-specific CTLs; TS followed by application of HSVgpB alone) was 0.25.

`O=C(O)CCCSCCN1C(=O)CC[C@@H]1/C=C/[C@@H](O)Cc1ccc(F)cc1` [Compound L-(1), 4-[(2-{(2R)-2-[(1E,3S)-4-(4-fluorophenyl)-3-hydroxybut-1-enyl]-5-oxopyrrolidin-1-yl}ethyl)sulfanyl]butanoic acid] was tested, and the “Ratio of TRP-2-specific CTLs” value (TRP-2-specific CTLs [1]; [3]) was 1.92 and the “Ratio of HSVgpB-specific CTLs” value (HSVgpB-specific CTLs; [4]) was 0.29.

For “TRP-2: melanoma-specific antigen peptide; tyrosinase-related protein 2 181-188, partial sequence VYDFFVWL (SEQ ID NO. 1) (Tyrosinase-related protein 2 residues 181-188) [reference compound]”, the “Ratio of TRP-2-specific CTLs” value (TRP-2-specific CTLs [1]; Example 1(1), TS followed by application of the test substance alone, cervical lymph nodes one week after application) was 0.35, the “Ratio of TRP-2-specific CTLs” value (TRP-2-specific CTLs [1]; Example 1(2), TS followed by application of TRP-2 alone, cervical lymph nodes) was 1.28 and the “Ratio of TRP-2-specific CTLs” value (TRP-2-specific CTLs [2]; addition of TRP-2 (10 μg/mL) alone, 7 days co-culture, relative to total mononucleocytes in the medium as 100) was 3.2. For the same molecule, the “ratio of TRP-2-specific CTLs in B6 splenocytic lymphocytes” value (TRP-2-specific CTLs [2]; addition of TRP-2, experimental group (2)) was “increased” and the “tumor growth suppressing action compared with an EP4 agonist alone” value (B16 melanoma cells) was “equivalent”.
